Experimental data taken from patent US6858739B2, “Indole and benzimidazole 15-lipoxygenase inhibitors” (Warner-Lambert Company, priority 2000, dated 2005).
Structures can show the parent of a compound that is named as a salt.

Legend:
human 15-LO = biological target: T1, human 15-LO (Homo sapiens, UniProt P16050); assay: 15-LO inhibition, human enzyme; format: biochemical; details: linoleic acid as substrate; for inhibition at 10 µM: at 10 micromolar
T1 sequence (P16050 1-662): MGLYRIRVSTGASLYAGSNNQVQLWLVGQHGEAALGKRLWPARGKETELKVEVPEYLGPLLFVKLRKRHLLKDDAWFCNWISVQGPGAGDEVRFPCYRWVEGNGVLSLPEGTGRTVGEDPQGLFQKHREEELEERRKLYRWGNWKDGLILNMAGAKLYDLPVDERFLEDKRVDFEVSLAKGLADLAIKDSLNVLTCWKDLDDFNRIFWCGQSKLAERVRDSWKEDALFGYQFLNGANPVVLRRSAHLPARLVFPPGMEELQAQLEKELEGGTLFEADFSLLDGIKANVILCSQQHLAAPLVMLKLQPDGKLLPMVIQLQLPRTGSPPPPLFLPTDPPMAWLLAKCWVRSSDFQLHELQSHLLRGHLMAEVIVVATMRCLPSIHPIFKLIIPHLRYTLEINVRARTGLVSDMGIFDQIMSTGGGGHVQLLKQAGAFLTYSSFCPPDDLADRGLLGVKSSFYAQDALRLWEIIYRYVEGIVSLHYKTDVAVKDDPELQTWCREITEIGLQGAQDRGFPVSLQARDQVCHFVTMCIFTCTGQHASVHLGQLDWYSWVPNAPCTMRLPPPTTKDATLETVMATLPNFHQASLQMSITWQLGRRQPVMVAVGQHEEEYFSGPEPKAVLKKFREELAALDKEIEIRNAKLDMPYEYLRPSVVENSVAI
Protocol: The compounds described above are effective inhibitors of 15-LO when evaluated in standard assays routinely utilized to measure 15-LO activity. Specifically, representative compounds were evaluated by the methods described by Auerbach et al., Analytical Biochemistry, 1992;201:375-380. Two in vitro assays were utilized, one utilizing rabbit reticulocyte 15-LO, the other using human 15-LO. Both used linoleic acid as substrate, to enzymatically produce a peroxide oxidation product known as 13(S)-HPODE. N-Benzoyl leucomethylene blue was utilized as a colorimetric reagent for detection and quantification of the peroxide formation. Also, HPLC was utilized to quantify the oxidation following incubation at 4° C. for 10 minutes.
Data Column 1 gives the concentration of compound required to inhibit 50% of the activity of 15-LO (IC50) when measured by the HPLC method of Auerbach et al. using rabbit enzymes, and data Column 2 gives data from human 15-LO enzyme.

Compound	melting point	IC50 (human 15-LO) [nM]	inhibition at 10 µM (human 15-LO) [%]
COc1ccc(-c2cc3ccccc3[nH]2)cc1NCc1cccc([N+](=O)[O-])c1 [Example 42, [5-(1H-indol-2-yl)-2-methoxy-phenyl]-(3-nitro-benzyl)-amine]	160 to 162 °C	870	–
COc1ccc(-c2cc3cc(F)c(F)cc3[nH]2)cc1NC(=O)Nc1cc(Cl)cc(Cl)c1 [Example 25, 1-(3,5-Dichloro-phenyl)-3-[5-(5,6-difluoro-1H-indol-2-yl)-2-methoxy-phenyl]-urea]	240 to 243 °C	2080	–
COc1ccc(-c2cc3cc(F)c(F)cc3[nH]2)cc1NC(=S)N[C@@H](COC(C)(C)C)C(=O)OC(C)(C)C [Example 36, (S)-3-tert-Butoxy-2-{3-[5-(5,6-Difluoro-1H-indol-2-yl)-2-methoxy-phenyl]-thioureido}-propionic acid tert-butyl ester]	111 to 114 °C	–	51
COc1ccc(-c2cc3ccccc3[nH]2)cc1NCc1ccc([N+](=O)[O-])cc1 [Example 43, [5-(1H-Indol-2-yl)-2-methoxy-phenyl]-(4-nitro-benzyl)-amine]	198 to 199 °C	920	–
COC(=O)c1ccc(Nc2cc(-c3cc4cc(F)c(F)cc4[nH]3)ccc2OC)cc1 [Example 52, 4-[5-(5,6-Difluoro-1H-indol-2-yl)-2-methoxy-phenylamino]-benzoic acid methyl ester]	166 to 170 °C	31	–
COc1ccc(-c2cc3ccccc3[nH]2)cc1NC(=S)Nc1cccc(CC(=O)O)c1 [Example 33, (3-{3-[5-(1H-Indol-2-yl)-2-methoxy-phenyl]-thioureido}-phenyl)-acetic acid]	174 to 175 °C	740	–
COc1ccc(-c2cc3cc(F)c(F)cc3[nH]2)cc1NCc1ccc([N+](=O)[O-])cc1 [Example 47, [5-(5,6-Difluoro-1H-indol-2-yl)-2-methoxy-phenyl]-(4nitro-benzyl)-amine]	181 to 182 °C	534	–
COc1ccc(-c2cc3ccccc3[nH]2)cc1NCc1ccc(O)c([N+](=O)[O-])c1 [Example 45, [5-(1H-Indol-2-yl)-2-methoxy-phenyl]-(4-hydroxy-3-nitro-benzyl)-amine]	165 to 166 °C	420	–
COc1ccc(-c2cc3cc(F)c(F)cc3[nH]2)cc1NC(=S)Nc1cc(C(=O)O)cc(C(=O)O)c1 [Example 30, 5-{3-[5-(5,6-Difluoro-1H-indol-2-yl)-2-methoxy-phenyl]-thioureido}-isophthalic acid]	–	1820	–
COc1ccc(-c2cc3ccccc3[nH]2)cc1NC(N)=S [Example 26, [5-(1H-Indol-2-yl)-2-methoxy-phenyl]-thiourea]	188 to 191 °C	258	–
COc1ccc(-c2cc3cc(Cl)c(Cl)cc3[nH]2)cc1Nc1cccc(C(F)(F)F)c1 [Example 54, [5-(5,6-Dichloro-1H-indol-2-yl)-2-methoxy-phenyl]-(3-trifluoro-methylphenyl)-amine]	193 to 194 °C	127	–
COc1ccc(-c2cc3ccccc3[nH]2)cc1NCc1ccc([N+](=O)[O-])c(O)c1 [Example 44, [5-(1H-Indol-2-yl)-2-methoxy-phenyl]-(3-hydroxy-4-nitro-benzyl)-amine]	134 to 135 °C	236	–
CCOP(=O)(Cc1ccc(NC(=S)Nc2cc(-c3cc4ccccc4[nH]3)ccc2OC)cc1)OCC [Example 23, (4-{3-[5-(1H-Indol-2-yl)-2-methoxy-phenyl]-thioureido}-benzyl)-phosphonic acid diethyl ester]	–	331	–

More lines, now with the values ahead:

melting point	IC50 (human 15-LO) [nM]	inhibition at 10 µM (human 15-LO) [%]	Compound
190 to 192 °C	1440	–	COc1ccc(-c2cc3ccccc3[nH]2)cc1NC(=S)Nc1ccc(CC(=O)O)cc1 [Example 34, (4-{3-[5-(1H-Indol-2-yl)-2-methoxy-phenyl]-thioureido}-phenyl)-acetic acid]
200 to 201 °C (dec.)	–	–	COc1ccc(-c2cc3cc(F)c(F)cc3[nH]2)cc1Nc1cccc(OCc2ccccc2)c1 (as salt: HCl) [Example 53, [5-(5,6-Difluoro-1H-indol-2-yl)-2-methoxy-phenyl]-(3-benzyloxy-phenyl)-amine]
148 to 149 °C	13	–	CCCCCCCCCCCCS(=O)(=O)Nc1cc(-c2cc3cc(F)c(F)cc3[nH]2)ccc1OC [Example 20, Dodecane-1-sulfonic acid [5-(5,6-difluoro-1H-indol-2-yl)-methoxy-phenyl]-amide]
–	620	–	COc1ccc(-c2cc3cc(F)c(F)cc3[nH]2)cc1NC(=S)N[C@@H](CO)[C@@H](O)c1ccccc1 [Example 40, 1-[5-(5,6-Difluoro-1H-indol-2-yl)-2-methoxy-phenyl]-3-((1S,2S)-2-hydroxy-1-hydroxymethyl-2-phenyl-ethyl)-thiourea]
154 to 155 °C	432	–	COc1ccc(-c2cc3cc(F)c(F)cc3[nH]2)cc1NCc1cccc(C#N)c1 [Example 51, [5-(5,6-Difluoro-1H-indol-2yl)-2-methoxy-phenyl]-(3-cyano-benzyl)-amine]
201 to 203 °C	304	–	COc1ccc(-c2cc3ccccc3[nH]2)cc1NC(=S)Nc1ccc(C(=O)O)cc1 [Example 32, 4-{3-[5-(1H-Indol-2-yl)-2-methoxy-phenyl]-thioureido}-benzoic acid]
195 to 196 °C	–	99	COc1ccc(-c2cc3cc(F)c(F)cc3[nH]2)cc1NCc1ccc(O)c([N+](=O)[O-])c1 [Example 49, [5-(5,6-Difluoro-1H-indol-2-yl)-2-methoxy-phenyl](4-hydroxy-3-nitro-benzyl)-amine]
170 to 171 °C	–	98	COc1ccc(-c2cc3cc(F)c(F)cc3[nH]2)cc1NCc1ccc([N+](=O)[O-])c(O)c1 [Example 48, [5-(5,6-Difluoro-1H-indol-2-yl)-2-methoxy-phenyl]-(3-hydroxy-4-nitro-benzyl)-amine]
144 to 146 °C	48	–	COc1ccc(-c2cc3cc(F)c(F)cc3[nH]2)cc1Nc1cccc(C(F)(F)F)c1 [Example 22, [5-(5,6-Difluoro-1H-indol-2-yl)-2-methoxy-phenyl]-(3-trifluoro-methylphenyl)-amine]
179 to 181 °C	1770	–	COc1ccc(-c2cc3ccccc3[nH]2)cc1NC(=S)N[C@H](C)c1ccccc1 [Example 27, (R)-1-[5-(1H-Indol-2-yl)-2-methoxy-phenyl]-3(1-phenyl-ethyl)-thiourea]
159 to 160 °C	141	–	COc1ccc(-c2cc3ccccc3[nH]2)cc1NC(=S)NCCNC(=O)OC(C)(C)C [Example 31, (2-{3-[5-(1H-Indol-2-yl)-2-methoxy-phenyl]-thioureido}-ethyl)-carbamic acid tert-butyl ester]
235 to 238 °C	20	–	COc1ccc(-c2cc3cc(F)c(F)cc3[nH]2)cc1NS(=O)(=O)c1cccc(N)c1 [Example 16, 3-Amino-N-[5-(5,6-difluoro-1H-indol-2-yl)-2-methoxy-phenyl]-benzenesulfonamide]
–	470	–	CNc1cc(-c2cc3ccccc3[nH]2)ccc1OC [Example 29, [5-(1H-Indol-2-yl)-2-methoxy-phenyl]-methyl-amine]
102 to 106 °C	538	–	COc1ccc(-c2cc3cc(F)c(F)cc3[nH]2)cc1NC(=S)N[C@@H](C)c1ccccc1 [Example 35, 1-[5-(5,6-Difluoro-1H-indol-2-yl)-2-methoxy-phenyl]-3-((S)-1-phenyl-ethyl)-thiourea]
212 to 214 °C	3030	–	COc1ccc(-c2cc3cc(F)c(F)cc3[nH]2)cc1NCc1cccc([N+](=O)[O-])c1 [Example 46, [5-(5,6-Difluoro-1H-indol-2-yl)-2-methoxy-phenyl]-(3-nitro-benzyl)-amine]
203 to 204 °C	–	65	CCCCCCCCCCCCS(=O)(=O)Nc1cc(-c2nc3cc(Cl)c(Cl)cc3[nH]2)ccc1OC [Example 21, Dodecane-1-sulfonic acid [5-(5,6-dichloro-1H-benzoimidazol-2-yl)-2-methoxy-phenyl]-amide]
–	187	–	COc1ccc(-c2cc3ccccc3[nH]2)cc1NC(=S)Nc1ccc(S(N)(=O)=O)cc1 [Example 17, 4-{3-[5-(1H-Indol-2-yl)-2-methoxy-phenyl]-thioureido}-benzenesulfonamide]
